Experiments:
[1] = molecular target: rat adrenal receptor preparations (angiotensin II binding); test: inhibition of 125I-angiotensin II binding to rat adrenal receptor preparations; conditions: read-out: IC50 (μM) for inhibition of 125I angiotensin II binding to rat adrenal receptor preparations
[2] = system: 2 kidney, 1-clip Goldblatt hypertensive rat (RHR); test: antihypertensive evaluation (AHP3): blood pressure in conscious 2 kidney, 1-clip Goldblatt (renal) hypertensive rats (RHR); type: in vivo; conditions: 30 mg/kg ip in RHR, read-out: Max % decrease in blood pressure
Excerpt: The continuous monitoring of pulsatile blood pressure (BP) from unrestrained conscious rats surgically equipped with polyethylene cannulas was accomplished by means of a computer assisted data capture scheme (CADCS). The basic elements of the methodology are the cannulation procedure and the CADCS.
Cannulas fabricated from polyethylene tubing were inserted into the aorta via an undersized puncture hole below the renal arteries. The puncture hole was made by a 23 G disposable needle with a section of the aorta clamped off above and below the puncture site. The cannulas, consisting of a PE100 (0.86 mm ID) body and a PE50 (0.58 mm ID) tip, were attached to a trocar, inserted through the psoas muscle, and passed subcutaneously along the midline of the back and externalized between the ears. The cannulas were anchored to the psoas muscle and between the scalulae (3-0 green braided suture). […] Each rat was then given penicillin 30,000 units subcutaneously (Penicillin G Procaine Sterile Suspension).
The rats were fitted with a harness-spring-swivel assembly designed to protect the cannula and to provide the rat relative freedom of movement. The harnesses were fabricated from nylon hook and loop tape cemented to a metal plate to which spring wires (18-8 stainless steel), were attached to brass swivels. […]

[3] = system: spontaneously hypertensive rat (SHR); test: antihypertensive evaluation (AHP3): blood pressure in conscious spontaneously hypertensive rats (SHR); type: in vivo; conditions: 30 mg/kg PO in SHR, read-out: Max % decrease in blood pressure
Protocol: Thus, for example, compounds of formula I when administered intrapertoneally or orally to 2 kidney, 1-clip Goldblatt (renal) hypertensive rats (See S. Sen, et al., "Role of Renin-Anfgiotensin System in Chronic Renal Hypertensive Rats," Hypertension 1: 427-4343 (1979) and Clin. Soc. 57: 53-62, 1979, "Antihypertensive Effect of Prolonged Blockade of Angiotensin Formation in Benign and Malignant, one- and two-kidney Goldblatt Hypertensive Rats".) at doses in the range of 1-100 mg/kg cause 10-80 mmHg drops in blood pressure. […] Angiotensin binding inhibition activity and blood pressure lowering activity in renal hypertensive rats of the optimally substituted examples of formula I are listed in Table 1. Blood pressure lowering activity in spontaneously hypertensive rats of optimally substituted examples of formula II are listed in Table 2. […]
CADCS: The pulsatile blood pressure of each of 32 rats was monitored continuously by two signal conditioning units (Gould, Cleve., Ohio). The signals from these units were monitored and digital data for mean, systolic, and diastolic blood pressures as well as for heart rate were calculated every 5 min by two in-laboratory computers (Hewlett Packard, Cupertino, Ca.). […]

Row | IC50 [1] | SMILES | change in vivo at 30 mg/kg [2] | change in vivo at 30 mg/kg [3]
1 | 8 µM | O=C(O)C1Cc2c(ncn2Cc2ccccc2)CN1C(=O)C1c2ccccc2-c2ccccc21 (racemic) [Example 29, 1H-Imidazo[4,5-c]pyridine-6-carboxylic acid, 5-[(9H-fluoren-9-yl)carbonyl]-4,5,6,7-tetrahydro-1-(phenylmethyl)-, (±)-] | -22% | 
2 |  | CSc1ccc(N2C(=O)C3Cc4[nH]cnc4CN3C2=O)cc1 (stereo not drawn) [Example 158, 8a,9-Dihydro-7-[4-(methylthio)phenyl]-1H-diimidazo[1,5-a:4',5'-d]pyridine-6,8(4H,7H)-dione] |  | -17%
